Results from paper doi:10.1101/2023.11.23.568446v1 (bioRxiv, 2023).
Bridge positions count the residues as written; N and C are the ends. Square brackets hold non-standard residues; d marks the D form. Peptide text beside a SMILES is read from it. * marks the point of attachment. X1 = CC[C@H](C)CCCCC(=O)*; Dab = NCC[C@H](N)C(=O)O

Key:
[1] = system: A. baumannii isolates; assay: Antibiotic resistance profile of isolates; format: cell-based, Acinetobacter baumannii
[2] = system: A. baumannii ATCC 17978; assay: Checkerboard assay; format: cell-based, Acinetobacter baumannii; details: for MIC alone, Antibiotic: A. baumannii ATCC 17978
[3] = system: DHA10 (CRAB); assay: Checkerboard assay; format: cell-based, Acinetobacter baumannii; details: for MIC in combination, Antibiotic: in combination with AIG-R5
[4] = system: A. baumannii biofilms; details: at 128µM (64×MIC); ref Kim et al., 2018; cited from earlier work

| Compound | Antibiotic resistance profile ([1]; strain 17978) | Antibiotic resistance profile ([1]; strain Ci 3) | Antibiotic resistance profile ([1]; strain Ci 6) | Antibiotic resistance profile ([1]; strain Ci 7) | Antibiotic resistance profile ([1]; strain DHA 8) | Antibiotic resistance profile ([1]; strain DHA 10) | Antibiotic resistance profile ([1]; strain P-1119) | Antibiotic resistance profile ([1]; strain P-1131) | Antibiotic resistance profile ([1]; strain P-1139) | Antibiotic resistance profile ([1]; strain P-1169) | Antibiotic resistance profile ([1]; strain P-1182) | MIC alone, Antibiotic [2] [µg/mL] | MIC in combination, Antibiotic ([2]; in combination with AIG-R1) [µg/mL] | MIC in combination, Antibiotic ([2]; in combination with AIG-R4) [µg/mL] | MIC in combination, Antibiotic ([2]; in combination with AIG-R5) [µg/mL] | MIC in combination, Antibiotic [3] [µg/mL] | MIC alone, Antibiotic [3] [µg/mL] | degraded pre-formed biofilms [4] [%] |
| --- | --- | --- | --- | --- | --- | --- | --- | --- | --- | --- | --- | --- | --- | --- | --- | --- | --- | --- |
| C[C@@H](O)[C@H]1C(=O)N2C(C(=O)O)=C(S[C@@H]3CN[C@H](C(=O)N(C)C)C3)[C@H](C)[C@H]12 [Meropenem] | S | R | R | R | R | R | R | R | R | R | R |  |  |  |  |  |  |  |
| CC[C@H](C)CCCCC(=O)N[C@@H](CCN)C(=O)N[C@H](C(=O)N[C@@H](CCN)C(=O)N[C@H]1CCNC(=O)[C@H]([C@@H](C)O)NC(=O)[C@H](CCN)NC(=O)[C@H](CCN)NC(=O)[C@H](CC(C)C)NC(=O)[C@@H](CC(C)C)NC(=O)[C@H](CCN)NC1=O)[C@@H](C)O [Colistin] (X1-[Dab]T[Dab][Dab][Dab][dL]L[Dab][Dab]T; lactam 4-C (inferred); N-terminus assumed) | S | R | R | R | R | R | R | R | R | R | R | 1 | 0.25 | 0.25 | 0.5 |  |  |  |
| NCC[C@H](O)C(=O)N[C@@H]1C[C@H](N)[C@@H](O[C@H]2O[C@H](CN)[C@@H](O)[C@H](O)[C@H]2O)[C@H](O)[C@H]1O[C@H]1O[C@H](CO)[C@@H](O)[C@H](N)[C@H]1O [Amikacin] |  |  |  |  |  |  |  |  |  |  |  | 2 | 0.5 | 1 | 0.5 | 256 |  |  |
| NC[C@H]1O[C@H](O[C@H]2[C@H](O)[C@@H](O[C@H]3O[C@H](CO)[C@@H](O)[C@H](N)[C@H]3O)[C@H](N)C[C@@H]2N)[C@H](N)C[C@@H]1O [Tobramycin] |  |  |  |  |  |  |  |  |  |  |  | 2 | 1 | 1 | 0.5 | 128 | 512 |  |
| magainin 2 |  |  |  |  |  |  |  |  |  |  |  |  |  |  |  |  |  | 33.3 |
| C[C@@H](O)[C@H]1C(=O)N2C(C(=O)O)=C(SCCN=CN)C[C@H]12 [Imipenem] | S | R | R | R | R | R | R | R | R | R | R | 2 | 1 | 1 | 1 |  |  |  |
| NC[C@H]1O[C@H](O[C@H]2[C@H](O)[C@@H](O[C@H]3O[C@H](CO)[C@@H](O)[C@H](N)[C@H]3O)[C@H](N)C[C@@H]2N)[C@H](O)[C@@H](O)[C@@H]1O.O=S(=O)(O)O [Kanamycin sulphate] |  |  |  |  |  |  |  |  |  |  |  | 4 | 2 | 2 | 1 |  |  |  |
| CO[C@H]1/C=C/O[C@@]2(C)Oc3c(C)c(O)c4c(O)c(cc(O)c4c3C2=O)NC(=O)/C(C)=C\C=C\[C@H](C)[C@H](O)[C@@H](C)[C@@H](O)[C@@H](C)[C@H](OC(C)=O)[C@@H]1C [Rifamycin] |  |  |  |  |  |  |  |  |  |  |  | 4 | 2 | 2 | 2 |  |  |  |
